As usually defined, the Km is the substrate concentration at which the rate is half of its maximum.

This is an account of results in US20190345505A1, “METHODS FOR REGULATING EXTRACTABLE PROANTHOCYANIDINS (PAS) IN PLANTS BY AFFECTING LEUCOANTHOCYANIDIN REDUCTASE (LAR)” (University of North Texas, priority 2016, published 2019).

One data set is described as follows: DMACA reactivity. The data set is classed as physicochemical. The following applies: Five μL of 1 mM compound added to 200 mL 0.2% DMACA stain solution. The method, then: Seeds of the lar mutant accumulated more than twice the level of 4β-(S-cysteinyl)-epicatechin than wild-type plants (FIGS. 14B and 14C), whereas none was detected in the anr mutant, and MYB5 over-expressing hairy roots accumulated more than three times the level of epicatechin-cysteine found in MYB14 over-expressing hairy roots. […] DMACA reactivity of epicatechin-cysteine was also measured. Five μL of 1 mM epicatechin or epicatechin-cysteine were added to 200 mL 0.2% DMACA stain solution. OD values of absorbance at 640 nm were measured as: Epicatechin=OD 0.71, Epicatechin-cysteine=OD 0.34, and Blank=OD 0.05. Epicatechin-cysteine reacted with DMACA reagent to produce a less intense blue color than epicatechin, consistent with the weak DMACA staining of lar mutant seeds.

Another data set relates to mutated LAR (LAR/K143G). As to the kind of experiment: Conversion of 4β-(S-cysteinyl)-epicatechin to epicatechin by mutated LAR (negative control). Conditions: 40 μM substrate, 50 μM NADPH, 5 μg protein, 1 h, room temperature. Format: biochemical, Medicago truncatula. As for the experimental part:
The full length LAR cDNA was cloned into pMal-c5x vector (New England Biolab) at the XmnI and BamHI sites. Mutations, which convert the lysine 143 codon to a glycine codon, were introduced into LAR cDNA by over-lapping PCR. The expression constructs were transformed into E. coli strain Rosetta™ 2(DE3)pLysS (EMD Millipore) competent cells. Transformed bacteria were grown in LB medium supplemented with 0.2% glucose to OD 600 of 0.5, and IPTG was added at 0.3 mM to induce protein expression. Bacteria were harvested after 4 h induction. LAR proteins were purified with amylose resin (NEB, E8021) following the manufacturer's protocol. Briefly, bacteria were lysed by sonication at 4° C. in extraction buffer (20 mM Tris pH 7.0, 200 mM NaCl, 1 mM DTT, 1 mM PMSF). […]
The above analyses indicate that the 21 minute fraction above contains cysteine and glucuronic acid conjugates of epicatechin, as well as a glucoside conjugate of epicatechin cysteine. Of these compounds, epicatechin cysteine was determined to be the best candidate for being a substrate for LAR. […] The ethyl acetate extract was dried under vacuum, dissolved in 50 μL water and analyzed by UPLC/MS.
Reactions without NADPH or LAR, with NADP^+, and with mutated LAR (LAR/K143G) were run in parallel as negative controls. Reactions were analyzed by UPLC/MS in negative mode. […] Epicatechin-cysteine content was quantified by EIC. […]

Data set [1] has as its target T1, LAR from Desmodium uncinatum (Desmodium uncinatum, UniProt Q84V83).
T1 sequence (Q84V83 1-382): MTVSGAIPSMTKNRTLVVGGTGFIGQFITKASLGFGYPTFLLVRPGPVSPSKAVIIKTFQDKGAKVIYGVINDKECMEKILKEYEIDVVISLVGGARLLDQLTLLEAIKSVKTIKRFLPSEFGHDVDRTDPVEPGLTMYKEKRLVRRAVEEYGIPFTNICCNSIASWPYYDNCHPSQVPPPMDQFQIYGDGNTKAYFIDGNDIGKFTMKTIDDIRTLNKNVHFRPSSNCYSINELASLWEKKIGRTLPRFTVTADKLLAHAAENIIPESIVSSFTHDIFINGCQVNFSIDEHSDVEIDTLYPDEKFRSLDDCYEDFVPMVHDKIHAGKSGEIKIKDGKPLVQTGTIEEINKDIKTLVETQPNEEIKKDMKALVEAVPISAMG
Conditions: Tanner et al. 2003; read-out: reported Km of LAR towards leucocyanidin; cited from earlier work.

Molecules are shown by their SMILES.

Consider `N[C@@H](CS[C@H]1c2c(O)cc(O)cc2O[C@H](c2ccc(O)c(O)c2)[C@@H]1O)C(=O)O` [4β-(S-cysteinyl)-epicatechin], for which the “OD values of absorbance at 640 nm (DMACA reactivity)” value in “DMACA reactivity” was 0.34 OD. Moreover, in the data set on mutated LAR (LAR/K143G), the “activity of mutated LAR on substrate (epicatechin formation, UPLC/MS)” value is listed as “no activity”.
On to `Oc1cc(O)c2c(c1)OC(c1ccc(O)c(O)c1)C(O)C2O` (stereo not drawn) [leucocyanidin], for which the Km in data set [1] was 6 µM.
